Values quoted from earlier work in patent publication US20240156749A1, “Pre And Post Natal Compositions Including Carotenoids” (Maravilla, LLC, priority 2022, published 2024).

System: oxygen-induced retinopathy
Conditions: mouse model of retinopathy of prematurity; prenatal supplementation

## CC1=C[C@H](O)CC(C)(C)[C@H]1/C=C/C(C)=C/C=C/C(C)=C/C=C/C=C(C)/C=C/C=C(C)/C=C/C1=C(C)C[C@@H](O)CC1(C)C [lutein]
  inhibition of oxygen-induced retinopathy: significantly inhibits oxygen-induced retinopathy

## CC1=C(/C=C/C(C)=C/C=C/C(C)=C/C=C/C=C(C)/C=C/C=C(C)/C=C/C2=C(C)C[C@@H](O)CC2(C)C)C(C)(C)C[C@H](O)C1 [zeaxanthin]
  inhibition of oxygen-induced retinopathy: significantly inhibits oxygen-induced retinopathy
